Laboratory results taken from patent US9371337B2, “β-lactamase inhibitors” (The Regents of the University of California, priority 2011, dated 2016).
Converted amounts (≈) assume the structure as drawn.

What was measured:
[1] = system: E. cloacae overproducing chromosomally-mediated class C β-lactamase; assay: MIC of third-generation cephalosporins alone and with compounds 4 or 9 (Table 3); assay type: cell-based, Enterobacter cloacae; details: antibiotic alone
[2] = system: C. freundii overproducing chromosomally-mediated class C β-lactamase; assay: as above; assay type: cell-based, Citrobacter freundii; details: antibiotic alone
[3] = system: K. pneumoniae producing the plasmid-mediated class C β-lactamase DHA-1; assay: as above; assay type: cell-based, Klebsiella pneumoniae; details: antibiotic alone
[4] = system: E. coli overproducing chromosomally-mediated class C β-lactamase; assay: as above; assay type: cell-based, Escherichia coli; details: antibiotic alone
[5] = system: C. freundii 101, AmpC-overproducing; assay: MIC of third-generation cephalosporins alone and with compounds (Table 6); assay type: cell-based, Citrobacter freundii; details: antibiotic alone
Protocol: (§1) The anti-resistance activity of inhibitors was investigated by the determination of the minimum inhibitory concentrations (MICs) of the β-lactam/inhibitor combination necessary to inhibit the growth of clinically-isolated bacteria resistant to third-generation cephalosporins via expression of class A or class C β-lactamases (Table 6).
(§2) Susceptibility testing was performed and interpreted following the guidelines of CLSI. (Clinical and Laboratory Standards Institute, Performance standards for antimicrobial susceptibility testing, 20th Informational Supplement, M100-S20 2010) The compounds were dissolved in 50% DMSO, and dilutions were performed using Muller-Hinton medium. An adequate final concentration was obtained to determine the minimum inhibitory concentrations (MICs). The concentration of DMSO was maintained below 5%. The inhibitors were tested for synergy with the third-generation β-lactams ceftazidime and cefotaxime against several clinical bacteria. The ratio of β-lactams to inhibitors was 1:4. Each value reported reflects the average of three independent experiments. […] The Friedman's test and the Wilcoxon signed rank test were used to compare MIC values. Statistical significance was established at p<0.05.
(§3) Table 6. MICs (μg/ml) of third-generation cephalosporins alone and in association with the compounds (ratio 1/4) for clinical bacteria. CTX, cefotaxime and CAZ, ceftazidime. ^1, AmpC-overproducing bacteria; ^2, CTX-M-14-producing E. coli; ^3, KPC-2-producing K. pneumoniae; ^4, OXA-48-producing K. pneumoniae; ^5, NDM-1-producing C. freundii.

[6] = system: C. freundii, AmpC-overproducing; assay: as above; assay type: cell-based, Citrobacter freundii; details: antibiotic alone
Protocol: as §1, §2, §3

[7] = system: NDM-1-producing C. freundii; assay: as above; assay type: cell-based, Citrobacter freundii; details: antibiotic alone
Protocol: as §1, §2, §3

[8] = system: CTX-M-14-producing E. coli; assay: as above; assay type: cell-based, Escherichia coli; details: antibiotic alone
Protocol: as §1, §2, §3

[9] = system: E. coli 142, AmpC-overproducing; assay: as above; assay type: cell-based, Escherichia coli; details: antibiotic alone
Protocol: as §1, §2, §3

[10] = system: E. coli 144, AmpC-overproducing; assay: as above; assay type: cell-based, Escherichia coli; details: antibiotic alone
Protocol: as §1, §2, §3

[11] = system: E. coli 145, AmpC-overproducing; assay: as above; assay type: cell-based, Escherichia coli; details: antibiotic alone
Protocol: as §1, §2, §3

[12] = system: E. coli 146, AmpC-overproducing; assay: as above; assay type: cell-based, Escherichia coli; details: antibiotic alone
Protocol: as §1, §2, §3

[13] = system: E. coli R1, AmpC-overproducing; assay: as above; assay type: cell-based, Escherichia coli; details: antibiotic alone
Protocol: as §1, §2, §3

[14] = system: E. coli, AmpC-overproducing; assay: as above; assay type: cell-based, Escherichia coli; details: antibiotic alone
Protocol: as §1, §2, §3

[15] = system: hospital-derived strain of E. coli that overproduces AmpC; assay: MIC for the strain used in the mouse model; assay type: cell-based; details: Escherichia coli

## CO/N=C(\C(=O)N[C@@H]1C(=O)N2C(C(=O)O)=C(COC(C)=O)CS[C@H]12)c1csc(N)n1 [Cefotaxime]
[1]
  MIC, cephalosporin alone: 64 µg/mL
[2]
  MIC, cephalosporin alone: 16 µg/mL
[3]
  MIC, cephalosporin alone: 8 µg/mL
[4]
  MIC, cephalosporin alone: 8 µg/mL
[5]
  MIC, cephalosporin alone: 64 µg/mL
[6]
  MIC, cephalosporin alone: 16 µg/mL
[7]
  MIC, cephalosporin alone: 512 µg/mL
[8]
  MIC, cephalosporin alone: 256 µg/mL
[9]
  MIC, cephalosporin alone: 4 µg/mL
[10]
  MIC, cephalosporin alone: 16 µg/mL
[11]
  MIC, cephalosporin alone: 16 µg/mL
[12]
  MIC, cephalosporin alone: 8 µg/mL
[13]
  MIC, cephalosporin alone: 4 µg/mL
[14]
  MIC, cephalosporin alone: 8 µg/mL
[15]
  MIC: 32 µg/mL (≈ 70.3 µM)
